According to patent US20130158362A1 (INFACARE PHARMACEUTICAL CORPORATION, priority 2011, published 2013):

Tested on: total serum bilirubin (TSB)
Test: Phase 2b trial: total serum bilirubin (TSB), adjusted and unadjusted, change from baseline
Format: in vivo, human
Parameters: total serum bilirubin / total serum bilirubin, Delta (change from baseline) / Change from baseline of total serum bilirubin: unit not given here
Settings: for change from baseline in adjusted TSB, LS mean difference versus placebo, MMRM / change from baseline in adjusted TSB, LS means (SEM), MMRM: observed case
Description: Three cohorts of subjects were recruited. This clinical study was designed to evaluate safety and efficacy parameters in each cohort.
Scheduled assessments (including TSB) occurred before treatment and at 0.75 and 2 hours (or 1.5 and 3 hours, depending on PK blood sampling assignment); 6, 12, 24, 48, and 72 hours; and 14 and 30 (except TSB) days after treatment or early termination.
The primary efficacy endpoint was the change in adjusted TSB from baseline to 48 hours after treatment. The adjusted TSB was a calculation of the percentage variance of the TSB level from the age specific threshold for PT initiation per the AAP Guidelines, i.e., an indication of the distance below the PT threshold by time.
The Secondary Efficacy Endpoints were the change from baseline in unadjusted TSB at 48 hours after treatment, change from baseline in adjusted and unadjusted TSB at various other time points after treatment, percent change from baseline in unadjusted TSB, proportion of subjects who require PT/exchange transfusion (ET), time to PT/ET, duration of PT and time to hospital discharge.
Intent-to-treat population (ITT): Defined as all subjects who were randomly assigned treatment in the clinical study, had received IMP, and had at least 1 post baseline TSB measurement during the first 48 hours after treatment. Subjects were summarized based on randomized treatment.
Analysis of Efficacy Parameters: The primary efficacy analysis applied the analysis of covariance (ANCOVA) method to determine if there was a significant difference between treatment groups in change in adjusted TSB levels from baseline to 48 hours post baseline after controlling for the effects of gestational age and adjusted baseline TSB levels. If assumptions of ANCOVA appeared to be violated, a Wilcoxon rank-sum test could be performed instead. Time-to-event variables were analyzed using the Kaplan-Meier method, and Kaplan-Meier survival curves were presented.

[1] = 4.5 mg/kg IM, 24 h, ITT, LOCF, ANCOVA
[2] = 4.5 mg/kg IM, 48 h/early termination, ITT, LOCF
[3] = 4.5 mg/kg IM, 48 h, ITT, LOCF, ANCOVA
[4] = 4.5 mg/kg IM, 48 hours, intent to treat, preliminary data
[5] = 4.5 mg/kg IM, 72 h, ITT, LOCF, ANCOVA
[6] = 4.5 mg/kg IM, 14 days/early termination, ITT, LOCF
[7] = 4.5 mg/kg IM, 14 days/early termination, ITT, LOCF, ANCOVA
[8] = 4.5 mg/kg versus the placebo group, 48 Hours/Early termination, PP Population, ANCOVA
[9] = 4.5 mg/kg, 48 Hours/Early termination, PP Population, LOCF
[10] = 4.5 mg/kg, 6 hrs, unadjusted TSB, ITT Population
[11] = 4.5 mg/kg, 12 hrs, unadjusted TSB, ITT Population
[12] = 4.5 mg/kg, 24 hrs, unadjusted TSB, ITT Population
[13] = 4.5 mg/kg, 48 hrs, unadjusted TSB, ITT Population
[14] = 4.5 mg/kg, baseline, PP Population
[15] = 4.5 mg/kg, baseline, unadjusted TSB, ITT Population

## tin IV mesoporphyrin IX dichloride [Stannsoporfin]
4.5 mg/kg IM, 24 h, ITT, LOCF
  change from baseline in adjusted TSB, Median: −11.15%
  change from baseline in unadjusted TSB, Mean (SD): 0.93 (1.990) mg/dL
  change from baseline in unadjusted TSB, Median: 1.20 mg/dL
  unadjusted TSB, Mean (SD): 10.52 (2.668) mg/dL
  unadjusted TSB, Median: 9.66 mg/dL
[1]
  change from baseline in adjusted TSB, LS mean (SEM): −11.59 (5.674) %
  change from baseline in adjusted TSB, LS mean difference versus placebo: −11.50%
  change from baseline in unadjusted TSB, LS Mean (SEM): 1.05 (0.665) mg/dL
  change from baseline in unadjusted TSB, LS Mean Difference versus placebo: -1.70 mg/dL
4.5 mg/kg IM, 24 h, ITT
  change from baseline in adjusted TSB, LS mean difference versus placebo, MMRM: −14.70%
  change from baseline in adjusted TSB, LS means (SEM), MMRM: −16.26 (5.495) %
[2]
  adjusted TSB, Mean (SD): −34.14 (14.733) %
  adjusted TSB, Median: −32.00%
4.5 mg/kg IM, 48 h, ITT, LOCF
  change from baseline in adjusted TSB, Mean (SD): −24.95 (19.261) %
  change from baseline in adjusted TSB, Median: −19.95%
  change from baseline in unadjusted TSB, Mean (SD): 0.80 (2.788) mg/dL
  change from baseline in unadjusted TSB, Median: 1.45 mg/dL
  unadjusted TSB, Mean (SD): 10.39 (2.650) mg/dL
  unadjusted TSB, Median: 10.35 mg/dL
[3]
  change from baseline in adjusted TSB, LS mean (SEM) (primary endpoint): −16.51 (6.925) %
  change from baseline in adjusted TSB, LS mean difference versus placebo: −14.93%
  change from baseline in unadjusted TSB, LS Mean (SEM): 1.60 (1.020) mg/dL
  change from baseline in unadjusted TSB, LS Mean Difference versus placebo: -2.63 mg/dL
4.5 mg/kg IM, 48 h, ITT, LOCF, ANCOVA, listed as stannsoporfin
  change from baseline in adjusted TSB, LS mean (SEM) (primary endpoint): 16.5%
4.5 mg/kg IM, 48 h, ITT
  change from baseline in adjusted TSB, LS mean difference versus placebo, MMRM: −20.66%
  change from baseline in adjusted TSB, LS means (SEM), MMRM: −27.34 (7.287) %
[4]
  total serum bilirubin: 10.39 ± 2.7
  total serum bilirubin, Delta (change from baseline): 0.80 ± 2.8
4.5 mg/kg IM, 48 hours, treated per protocol, preliminary data
  total serum bilirubin, Delta (change from baseline): 0.04 ± 3.1
4.5 mg/kg IM, 72 h/early termination, ITT, LOCF
  adjusted TSB, Mean (SD): −38.38 (16.637) %
4.5 mg/kg IM, 72 h, ITT, LOCF
  change from baseline in adjusted TSB, Mean (SD): −29.19 (19.225) %
  change from baseline in adjusted TSB, Median: −21.45%
  change from baseline in unadjusted TSB, Mean (SD): 0.15 (3.740) mg/dL
  change from baseline in unadjusted TSB, Median: 1.90 mg/dL
  unadjusted TSB, Mean (SD): 9.73 (3.672) mg/dL
  unadjusted TSB, Median: 11.15 mg/dL
[5]
  change from baseline in adjusted TSB, LS mean (SEM): −19.00 (8.184) %
  change from baseline in adjusted TSB, LS mean difference versus placebo: −14.25%
  change from baseline in unadjusted TSB, LS Mean (SEM): 1.38 (1.305) mg/dL
  change from baseline in unadjusted TSB, LS Mean Difference versus placebo: -3.57 mg/dL
[6]
  change from baseline in unadjusted TSB, Mean (SD): −4.28 (3.828) mg/dL
  change from baseline in unadjusted TSB, Median: -5.73 mg/dL
  unadjusted TSB, Mean (SD): 5.31 (4.596) mg/dL
  unadjusted TSB, Median: 2.98 mg/dL
[7]
  change from baseline in unadjusted TSB, LS Mean (SEM): −3.02 (1.524) mg/dL
  change from baseline in unadjusted TSB, LS Mean Difference versus placebo: -0.72 mg/dL
[8]
  48 Hours/Early termination change from baseline in unadjusted TSB, LS mean difference: -2.82 mg/dL
  P-value of LS mean difference, change from baseline in unadjusted TSB: 0.030
[9]
  48 Hours/Early termination change from baseline in unadjusted TSB, Max: 3.6 mg/dL
  48 Hours/Early termination change from baseline in unadjusted TSB, Mean (SD): 0.40 (3.111) mg/dL
  48 Hours/Early termination change from baseline in unadjusted TSB, Median: 0.70 mg/dL
  48 Hours/Early termination change from baseline in unadjusted TSB, Min: -3.4 mg/dL
  48 Hours/Early termination unadjusted TSB, Max: 13.4 mg/dL
  48 Hours/Early termination unadjusted TSB, Mean (SD): 9.88 (2.807) mg/dL
  48 Hours/Early termination unadjusted TSB, Median: 10.00 mg/dL
  48 Hours/Early termination unadjusted TSB, Min: 5.6 mg/dL
4.5 mg/kg, 48 Hours/Early termination, PP Population, LOCF, ANCOVA
  48 Hours/Early termination change from baseline in unadjusted TSB, LS mean (SEM): 1.11 (1.095) mg/dL
[10]
  6 hrs Percent Change from Baseline in TSB, Max: 26.4%
  6 hrs Percent Change from Baseline in TSB, Mean (SD): 17.33 (5.373) %
  6 hrs Percent Change from Baseline in TSB, Min: 10.7%
  6 hrs TSB, Max: 14.8 mg/dL
  6 hrs TSB, Mean (SD): 11.31 (2.237) mg/dL
  6 hrs TSB, Min: 7.6 mg/dL
[11]
  12 hrs Percent Change from Baseline in TSB, Max: 29.2%
  12 hrs Percent Change from Baseline in TSB, Mean (SD): 20.16 (6.326) %
  12 hrs Percent Change from Baseline in TSB, Min: 9.8%
  12 hrs TSB, Max: 14.8 mg/dL
  12 hrs TSB, Mean (SD): 11.54 (2.067) mg/dL
  12 hrs TSB, Min: 8.0 mg/dL
[12]
  24 hrs Percent Change from Baseline in TSB, Max: 43.8%
  24 hrs Percent Change from Baseline in TSB, Mean (SD): 10.75 (23.016) %
  24 hrs Percent Change from Baseline in TSB, Median: 12.15%
  24 hrs Percent Change from Baseline in TSB, Min: −14.8%
  24 hrs TSB, Max: 14.0 mg/dL
  24 hrs TSB, Mean (SD): 10.52 (2.668) mg/dL
  24 hrs TSB, Min: 7.7 mg/dL
[13]
  48 hrs Percent Change from Baseline in TSB, Max: 56.3%
  48 hrs Percent Change from Baseline in TSB, Mean (SD): 14.87 (33.167) %
  48 hrs Percent Change from Baseline in TSB, Min: −37.7%
  48 hrs TSB, Max: 13.4 mg/dL
  48 hrs TSB, Mean (SD): 10.69 (2.708) mg/dL
  48 hrs TSB, Min: 5.6 mg/dL
4.5 mg/kg, 14 days after treatment (text, not LOCF table)
  mean TSB levels: 2.94 mg/dL
[14]
  Baseline unadjusted TSB, Max: 12.8 mg/dL
  Baseline unadjusted TSB, Mean (SD): 9.47 (2.319) mg/dL
  Baseline unadjusted TSB, Median: 9.00 mg/dL
  Baseline unadjusted TSB, Min: 6.4 mg/dL
[15]
  Baseline TSB, Max: 12.8 mg/dL
  Baseline TSB, Mean (SD): 9.59 (1.911) mg/dL
  Baseline TSB, Min: 6.4 mg/dL
Bilirubin levels, FIG. 7
  time after administration at which an effect begins: 6 to 12 h
